Source: patent US20260055365A1, “METHOD FOR SELECTIVE DIFFERENTIATION FROM PLURIPOTENT STEM CELLS TO HINDBRAIN TISSUE” (NEXT&BIO INC., priority 2022, published 2026)

System: embryoid bodies formed from pluripotent stem cells
Assay: Selective differentiation of embryoid bodies into hindbrain tissue (region-specific gene expression)
Type: cell-based
Settings: cultured 7 days
Protocol: When the density of pluripotent stem cells reached approximately 80%, residues on the cell surface were washed using D-PBS and separated into each cell. Furthermore, the cells were diluted to contain approximately 100,000 cells per 10 ml of the embryoid body formation medium, and approximately 100 μl of the medium containing the cells was injected into each well of an Ultra-Low-attachment U bottom 96 well plate (Corning, 7007). Then, the cells were added in an incubator under a CO2 atmosphere at 37° C. and cultured for about 24 hours to form embryoid bodies. After the embryoid bodies were formed as described above, after about one day, it was confirmed whether one spherical embryoid body with a clean surface was formed well in each well. A hindbrain tissue induction medium containing IWP-2 as an endogenous WNT secretion inhibitor at a concentration of 1 μM and CHIR99021 as a WNT signaling agonist at concentrations of 1 μM, 2 μM, 3 μM, and 5 μM was prepared, and then about 100 μl of the hindbrain tissue induction medium was added to each well containing the embryoid body. About 100 μl of the existing medium was removed once every two days, about 100 μl of the hindbrain tissue induction medium was added, and the embryoid bodies were cultured for 7 days to confirm whether selective differentiation of the embryoid bodies into hindbrain tissue was performed well.

## Cc1c[nH]c(-c2cnc(NCCNc3ccc(C#N)cn3)nc2-c2ccc(Cl)cc2Cl)n1 [CHIR99021]
Hindbrain tissue induction medium with CHIR99021 2 μM to 3 μM plus IWP-2 1 μM
  expression intensities of hindbrain region-specific genes versus other brain region-specific genes: much stronger than those of other brain region-specific genes
Hindbrain tissue induction medium with CHIR99021 approximately 1 μM plus IWP-2 1 μM
  expression of forebrain region-specific genes versus other brain regions: stronger than that of other brain regions
Hindbrain tissue induction medium with CHIR99021 approximately 5 μM plus IWP-2 1 μM
  expression of spinal cord region-specific genes versus other brain regions: stronger than that of other brain regions
Hindbrain tissue induction medium with CHIR99021 more than 1 μM and less than 5 μM plus IWP-2 1 μM, FIGS. 2 to 4
  expression of hindbrain region-specific genes: strongly induced
